According to the NIST ThermoML archive (doi:10.1016/j.jct.2012.03.002):
± gives the expanded uncertainty stated by the source.

Tests used:
[1] = refractive index (Na D-line) (dimensionless); cn = amount concentration of the nth substance listed, in mol/dm3; conditions: 298.15 K, 101 kPa, Liquid, Standard Abbe refractometry
[2] = cn = amount concentration of the nth substance listed, in mol/dm3; conditions: 298.15 K, 101 kPa, Liquid, Alternating current cell with electrodes
[3] = wn = mass fraction of the nth substance listed; conditions: 298.15 K, 101 kPa, Liquid; for viscosity: Capillary tube (Ostwald / Ubbelohde) method; for mass density: Vibrating tube method
[4] = refractive index (Na D-line) (dimensionless); wn = mass fraction of the nth substance listed; conditions: 298.15 K, 101 kPa, Liquid, Standard Abbe refractometry
[5] = 298.15 K, 101 kPa, Liquid; for viscosity: Capillary tube (Ostwald / Ubbelohde) method; for mass density: Vibrating tube method
[6] = refractive index (Na D-line) (dimensionless); conditions: 298.15 K; 101 kPa; Liquid; Standard Abbe refractometry

[Na+].c1ccc([B-](c2ccccc2)(c2ccccc2)c2ccccc2)cc1 [sodium tetraphenylboron] + C[N+](=O)[O-]
Conditions | molar conductivity [S·m2/mol] | refractive index
[1], c1 = 0.0044 | – | 1.3803 ± 0.0009
[1], c1 = 0.0178 | – | 1.3811 ± 0.0009
[1], c1 = 0.0313 | – | 1.3819 ± 0.0009
[1], c1 = 0.0449 | – | 1.3826 ± 0.0009
[1], c1 = 0.0586 | – | 1.3837 ± 0.0009
[2], c1 = 0.001163 | 0.008583 ± 6e-06 | –
[2], c1 = 0.002132 | 0.008413 ± 6e-06 | –
[2], c1 = 0.002952 | 0.008296 ± 6e-06 | –
[2], c1 = 0.003655 | 0.008195 ± 6e-06 | –
[2], c1 = 0.004797 | 0.008057 ± 6e-06 | –
[2], c1 = 0.005686 | 0.007972 ± 6e-06 | –
[2], c1 = 0.006397 | 0.007909 ± 6e-06 | –
[2], c1 = 0.006701 | 0.007878 ± 6e-06 | –
[2], c1 = 0.007231 | 0.007825 ± 6e-06 | –
[2], c1 = 0.007676 | 0.007789 ± 6e-06 | –
[2], c1 = 0.008055 | 0.00776 ± 6e-06 | –
[2], c1 = 0.008382 | 0.007739 ± 6e-06 | –

C[N+](=O)[O-] [nitromethane] + O=[N+]([O-])c1ccccc1
Conditions | mass density, [3] [kg/m3] | refractive index, [4] | viscosity, [3] [mPa·s]
w1 = 0.25 | 1178.4 ± 1.1 | 1.5051 ± 0.0008 | 0.918 ± 0.02
w1 = 0.5 | 1161.1 ± 1.2 | 1.4623 ± 0.0008 | 0.827 ± 0.018
w1 = 0.75 | 1144.7 ± 1.3 | 1.4201 ± 0.0009 | 0.745 ± 0.017
w1 = 1 | 1128.8 ± 1.4 | 1.3799 ± 0.0009 | 0.614 ± 0.014

O=[N+]([O-])c1ccccc1 [nitrobenzene] + C[N+](=O)[O-]
w2 = 0
Conditions | mass density [kg/m3] | refractive index | viscosity [mPa·s]
[3] | 1197.7 ± 1.1 | – | 1.809 ± 0.039
[4] | – | 1.5493 ± 0.0008 | –

[Na+].c1ccc([B-](c2ccccc2)(c2ccccc2)c2ccccc2)cc1 [sodium tetraphenylboron] + O=[N+]([O-])c1ccccc1
Conditions | molar conductivity [S·m2/mol] | refractive index
[1], c1 = 0.0042 | – | 1.5498 ± 0.0008
[1], c1 = 0.0168 | – | 1.5506 ± 0.0008
[1], c1 = 0.0295 | – | 1.5511 ± 0.0008
[1], c1 = 0.0423 | – | 1.5518 ± 0.0008
[1], c1 = 0.0552 | – | 1.5526 ± 0.0008
[2], c1 = 0.001579 | 0.00273 ± 6e-06 | –
[2], c1 = 0.002187 | 0.002689 ± 6e-06 | –
[2], c1 = 0.002707 | 0.00266 ± 6e-06 | –
[2], c1 = 0.003159 | 0.002634 ± 6e-06 | –
[2], c1 = 0.003902 | 0.002597 ± 6e-06 | –
[2], c1 = 0.004489 | 0.002572 ± 6e-06 | –
[2], c1 = 0.004964 | 0.002553 ± 6e-06 | –
[2], c1 = 0.005966 | 0.002516 ± 6e-06 | –
[2], c1 = 0.006419 | 0.0025 ± 6e-06 | –
[2], c1 = 0.006844 | 0.002482 ± 6e-06 | –
[2], c1 = 0.00722 | 0.002471 ± 6e-06 | –
[2], c1 = 0.007448 | 0.002463 ± 6e-06 | –

O=[N+]([O-])c1ccccc1 [nitrobenzene] + [Na+].c1ccc([B-](c2ccccc2)(c2ccccc2)c2ccccc2)cc1
Conditions | refractive index
[1], c2 = 0 | 1.5493 ± 0.0008

O=[N+]([O-])c1ccccc1 [nitrobenzene]
Conditions | mass density [kg/m3] | refractive index | viscosity [mPa·s]
[5] | 1197.7 ± 1.1 | – | 1.809 ± 0.039
[6] | – | 1.5493 ± 0.0008 | –

C[N+](=O)[O-] [nitromethane]
Conditions | mass density [kg/m3] | refractive index | viscosity [mPa·s]
[5] | 1128.8 ± 1.4 | – | 0.614 ± 0.014
[6] | – | 1.3799 ± 0.0009 | –

C[N+](=O)[O-] [nitromethane] + [Na+].c1ccc([B-](c2ccccc2)(c2ccccc2)c2ccccc2)cc1
Conditions | refractive index
[1], c2 = 0 | 1.3799 ± 0.0009
